The NIST ThermoML archive (doi:10.1016/j.tca.2006.04.016)

Assay: xn = mol fraction of the nth substance listed
Conditions: 101 kPa, Liquid, Vibrating tube method

CN(C)CCCN [N,N-dimethyl-1,3-propanediamine] + O
mass density [kg/m3]
Conditions	283.15 K	288.15 K	293.15 K	298.15 K	303.15 K	308.15 K	313.15 K	318.15 K
x2 = 0	825.96	821.56	817.14	812.72	808.28	803.83	799.38	794.9
x2 = 0.0403	829.01	824.62	820.21	815.8	811.37	806.92	802.47	797.99
x2 = 0.0811	832.1	827.73	823.33	818.92	814.5	810.07	805.61	801.14
x2 = 0.1198	835.2	830.84	826.46	822.07	817.65	813.22	808.78	804.31
x2 = 0.16	838.61	834.27	829.9	825.51	821.11	816.69	812.24	807.78
x2 = 0.1996	842.14	837.81	833.45	829.08	824.69	820.27	815.84	811.38
x2 = 0.2498	846.96	842.65	838.31	833.95	829.57	825.17	820.74	816.29
x2 = 0.2998	852.16	847.87	843.54	839.2	834.84	830.45	826.04	821.59
x2 = 0.3499	857.74	853.47	849.16	844.84	840.49	836.11	831.71	827.27
x2 = 0.3997	863.92	859.67	855.38	851.07	846.73	842.37	837.97	833.54
x2 = 0.4501	870.78	866.55	862.28	857.98	853.66	849.3	844.91	840.49
x2 = 0.4998	878.37	874.15	869.89	865.61	861.29	856.94	852.56	848.14
x2 = 0.5501	886.96	882.76	878.51	874.24	869.93	865.59	861.21	856.79
x2 = 0.5999	896.46	892.27	888.05	883.78	879.48	875.14	870.76	–
x2 = 0.6498	907.17	902.99	898.77	894.51	890.21	885.88	881.5	–
x2 = 0.7	919.35	915.19	910.98	906.73	902.43	898.1	893.72	–
x2 = 0.7499	932.79	928.64	924.44	920.2	915.92	911.6	907.23	–
x2 = 0.8	947.49	943.36	939.18	934.96	930.71	926.42	922.09	–
x2 = 0.84	959.97	955.86	951.72	947.55	943.35	939.13	934.86	–
x2 = 0.8799	972.18	968.2	964.2	960.18	956.14	952.08	947.99	–
x2 = 0.9	977.57	973.8	970	966.18	962.33	958.45	954.54	–
x2 = 0.92	981.9	978.55	975.13	971.67	968.16	964.59	960.96	–
x2 = 0.94	984.99	982.31	979.51	976.61	973.6	970.49	967.29	–
x2 = 0.9597	987.53	985.64	983.57	981.34	978.95	976.4	973.72	–
x2 = 0.975	990.28	988.99	987.47	985.74	983.82	981.71	979.42	–
x2 = 0.99	994.84	994.04	992.95	991.63	990.07	988.31	986.35	–
